Values quoted from earlier work, collected in US20080103118A1, “COMPOSITION FOR IMPROVING BLOOD CHOLESTEROL LEVELS” (IOMEDIX DEVELOPMENT INTERNATIONAL SRL, priority 2006, published 2008).

Settings: 117 individuals, 63 Niacin, 54 placebo

O=C(O)c1cccnc1 [Niacin, nicotinic acid]
high-density lipoprotein cholesterol (HDL-C): increase
low-density lipoprotein cholesterol (LDL-C): decrease
total cholesterol: decrease
triglyceride levels: decrease
